According to ChEMBL document CHEMBL3822436, “New polyhydroxylated flavon-3-ols and 3-hydroxy-2-styrylchromones: synthesis and ROS/RNS scavenging activities” (Eur J Med Chem, 2016):

Tests used:
Assay type in all cases: physicochemical; call rule not given here
[1] = Antioxidant activity assessed as inhibition of peroxynitrite-induced oxidation of DHR to rhodamine-123 measured after 2 mins in presence of NaHCO3 by fluorimetric analysis
[2] = Antioxidant activity assessed as inhibition of nitric oxide-induced oxidation of DAF-2 to DAF-2T measured after 30 mins by fluorimetric analysis
[3] = Antioxidant activity assessed as inhibition of hydrogen peroxide-induced lucigenin oxidation at 1000 uM by chemiluminescence-based assay
[4] = Antioxidant activity assessed as inhibition of superoxide-induced NBT reduction at 100 uM measured during 2 mins by spectrophotometric analysis
[5] = Antioxidant activity assessed as inhibition of singlet oxygen-induced oxidation of DHR to fluorescent rhodamine-123 measured after 30 mins by fluorescence microplate screening assay; conditions: for inhibition (INH): 0.5 h
[6] = Antioxidant activity assessed as inhibition of peroxynitrite-induced oxidation of DHR to rhodamine-123 measured after 2 mins by fluorimetric analysis
[7] = Antioxidant activity assessed as inhibition of HOCl-induced oxidation of non-fluorescent DHR to fluorescent rhodamine-123 by fluorescence-based assay
[8] = Antioxidant activity assessed as inhibition of superoxide-induced NBT reduction measured during 2 mins by spectrophotometric analysis
[9] = Antioxidant activity assessed as inhibition of peroxynitrite-induced oxidation of DHR to rhodamine-123 at 5 uM measured after 2 mins in presence of NaHCO3 by fluorimetric analysis
[10] = Antioxidant activity assessed as inhibition of peroxyl radical-induced oxidation of fluorescein measured as trolox equivalent by ORAC assay

Structure (SMILES) | IC50 [1] | IC50 [2] | inhibition (INH) [3] | inhibition (INH) [4] | IC50 [5] | inhibition (INH) [5] | IC50 [6] | IC50 [7] | IC50 [8] | inhibition (INH) [9] | Activity [10]
COc1ccc2c(=O)c(O)c(/C=C/c3ccc(O)c(O)c3)oc2c1OC | 1300 nM | 830 nM | Not Active | 49% | 1200 nM | Dose-dependent effect | 570 nM | 820 nM | – | – | –
COc1ccc(-c2oc3c(O)c(O)ccc3c(=O)c2O)cc1OC | 2500 nM | 55 nM | Not Active | – | 2400 nM | Dose-dependent effect | 710 nM | 6300 nM | 21000 nM | – | –
O=c1c(O)c(/C=C/c2ccc(O)c(O)c2)oc2c(O)c(O)ccc12 | 980 nM | 670 nM | Not Active | – | 1000 nM | Dose-dependent effect | 290 nM | 1420 nM | 30000 nM | – | –
COc1ccc(/C=C/c2oc3c(O)c(O)ccc3c(=O)c2O)cc1OC | – | 1000 nM | Not Active | – | 1000 nM | Dose-dependent effect | 570 nM | 910 nM | 35000 nM | Not Active | –
O=c1c(O)c(-c2ccc(O)c(O)c2)oc2c(O)c(O)ccc12 | 930 nM | 120 nM | Not Active | – | 4200 nM | Dose-dependent effect | 910 nM | 2400 nM | 19000 nM | – | –
COc1ccc2c(=O)c(O)c(-c3ccc(O)c(O)c3)oc2c1OC | 1030 nM | 58 nM | Not Active | – | 1300 nM | Dose-dependent effect | 590 nM | 3300 nM | 58000 nM | – | –
O=c1c(O)c(-c2ccc(O)c(O)c2)oc2cc(O)cc(O)c12 [QUERCETIN] | 1100 nM | – | Not Active | – | – | – | 760 nM | 800 nM | 67000 nM | – | 0.49 uMequiv/uM
